Reference: patent publication US10908153B2, “Pseudomonas aeruginosa inhibitor compounds” (priority 2015, dated 2021)

Biological target: T1, PscE-PscG interaction (Pseudomonas aeruginosa, UniProt P95435+Q9I317)
T1 construct: made in house; host or cells: E. coli
Assay: ELISA test of inhibition of the PscE-PscG interaction
Type: binding
Conditions: for inhibition at 25 µM: read-out: % inhibition PscE-PscG at 50 μm; for PscE-PscG at 50 μM: inhibition by new synthetic analogues at 50 μM, PscG 2.2 μM, PscE solution 3 μM; for inhibition at 50 µM: 4 h, read-out: PscE-PscG at 50 μM; for inhibitory effect compared with clioquinol: ELISA test, 50 μM, Table 2
Method: 50 μL of PscG protein at 1 μM (for screening libraries) or 2.2 μM (for screening newly synthesized molecules) is incubated in a NUNC 96-well plate for 8 h at 4° C. The wells are washed three times with 200 μL of 1× PBS/0.1% Tween20®. The wells are treated overnight at 4° C. with 200 μL of a 5% milk solution in 1× PBS/0.1% Tween20®. The solution is then discarded, and the plate is drained dry.
The test is carried out as follows:
Negative control (lowest signal level): 100 μL of buffer ([…] Tris-HCl, 250 mM NaCl, pH 8.0);
Positive control (highest signal level): 50 μL of buffer and 50 μL of a test solution at 25 (library screening) or 3 μM (screening of analogue molecules) of the PscE protein;
Test of the inhibitors: 40 μL buffer, 50 μL of a solution at 25 μM (library screening) or 3 μM (screening of analogue molecules) of PscE protein and 10 μL of the solution containing the inhibitor to be tested.
The solutions are left for 4 h at room temperature.
The wells are washed three times with 200 μL of 1× PBS/0.1% Tween20®. The anti-PscE antibody diluted to 1:2,000 in 1× PBS/0.1% Tween20®, 50 μL, is added and the whole is left 2 h at room temperature. The wells are washed three times with 200 μL of 1× PBS/0.1% Tween20®. The HRP-conjugated anti-mouse antibody is diluted to 1:5,000 in 1× PBS/0.1% Tween20® and 50 μL is added and left for 2 h at room temperature. The wells are washed three times with 200 μL of 1× PBS/0.1% Tween20®.
The ELISA test is developed by adding 50 μL of TMB reagent followed by incubation for 15 minutes at room temperature in the dark. The reaction is stopped by adding 50 μL of 2N HCl. The plate is read at 450 nm.

T1 sequence (Q9I317 whole entry): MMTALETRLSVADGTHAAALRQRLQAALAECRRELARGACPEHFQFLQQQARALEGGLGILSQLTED
T1 sequence (P95435 whole entry): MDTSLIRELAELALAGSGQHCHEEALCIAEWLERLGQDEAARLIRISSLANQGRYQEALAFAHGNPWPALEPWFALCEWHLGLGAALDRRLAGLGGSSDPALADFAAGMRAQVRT

| SMILES | inhibition at 50 µM [%] | inhibitory effect compared with clioquinol | further results |
| --- | --- | --- | --- |
| NC(CO)C(=O)NNCc1ccc(O)c(O)c1O (stereo not shown) [Benserazide, reference compound] |  |  | IC50: 11 µM; inhibition at 25 µM: 86.3% |
| Oc1c(I)cc(Cl)c2cccnc12 [Clioquinol, reference compound] |  |  | IC50: 5 µM; PscE-PscG at 50 μM (240 min): 45.2%; inhibition at 25 µM: 93.7% |
| Cc1cc2c(C(C)C)c(O)c(O)c(C=O)c2c(O)c1-c1c(C)cc2c(C(C)C)c(O)c(O)c(C=O)c2c1O [Gossypol, reference compound] |  |  | inhibition at 25 µM: 73.9% |
| CC1(C)CC[C@]2(C(=O)O)CC[C@]3(C)C(=CC[C@@H]4[C@@]5(C)CC[C@H](O)[C@@](C)(CO)[C@@H]5CC[C@]43C)[C@@H]2C1 [Hederagenin, reference compound] |  |  | inhibition at 25 µM: 58% |
| O=c1c(O)c(-c2cc(O)c(O)c(O)c2)oc2cc(O)cc(O)c12 [Myricetin, reference compound] |  |  | inhibition at 25 µM: 80.5% |
| O=C(O)CN(CCN(CC(=O)O)CC(=O)O)CCN(CC(=O)O)CC(=O)O [Pentetic acid, reference compound] |  |  | % inhibition PscE-PscG at 50 μm (primary screening of libraries, 50 μm compound, PscG 1 μM, PscE solution 25 μM): 94% |
| [N-]=[N+]=NCCCCOCCCc1ccc[n+](CCCCOCCCc2cccnc2)c1 [molecule 17, 3-(3-(4-azidobutoxy)propyl)-1-(4-(3-(pyridin-3-yl)propoxy)butyl)pyridinium chloride] |  |  | PscE-PscG at 50 μM: no inhibition |
| [N-]=[N+]=NCCCCOCCCc1ccc[n+](CCCCCCOCCCc2cccnc2)c1 [molecule 18, 3-(3-(4-azidobutoxy)propyl)-1-(6-(3-(pyridin-3-yl)propoxy)hexyl)pyridinium chloride] |  |  | PscE-PscG at 50 μM: no inhibition |
| [N-]=[N+]=NCCCCCCOCCCc1ccc[n+](CCCCOCCCc2cccnc2)c1 [molecule 19, 3-(3-(6-azidohexyloxy)propyl)-1-(4-(3-(pyridin-3-yl)propoxy)butyl)pyridinium chloride] | 19.8 |  |  |
| [N-]=[N+]=NCCCCOCCCc1ccc[n+](CCCCCCCCOCCCc2cccnc2)c1 [molecule 20, 3-(3-(4-azidobutoxy)propyl)-1-(8-(3-(pyridin-3-yl)propoxy)octyl)pyridinium chloride] |  |  | PscE-PscG at 50 μM: no inhibition |
| [N-]=[N+]=NCCCCCCOCCCc1ccc[n+](CCCCCCCCOCCCc2cccnc2)c1 [molecule 22, 3-(3-(6-azidohexyloxy)propyl)-1-(8-(3-(pyridin-3-yl)propoxy)octyl)pyridinium chloride] | 88.8 | superior to clioquinol |  |
| [N-]=[N+]=NCCCCCCCCCCOCCCc1ccc[n+](CCCCCCOCCCc2cccnc2)c1 [molecule 24, 3-(3-(10-azidodecyloxy)propyl)-1-(6-(3-(pyridin-3-yl)propoxy)hexyl)pyridinium chloride] | 38.6 |  |  |
| [N-]=[N+]=NCCCCCCCCCCCCOCCCc1ccc[n+](CCCCOCCCc2cccnc2)c1 [molecule 26, 3-(3-(12-azidododecyloxy)propyl)-1-(4-(3-(pyridin-3-yl)propoxy)butyl)pyridinium chloride] | 44.2 |  |  |
| [N-]=[N+]=NCCCCCCOCCCc1ccc[n+](CCCCCCCCCCOCCCc2cccnc2)c1 [molecule 27, 3-(3-(6-azidohexyloxy)propyl)-1-(10-(3-(pyridin-3-yl)propoxy)decyl)pyridinium chloride] | 39.6 |  |  |
| [N-]=[N+]=NCCCCCCOCCCc1ccc[n+](CCCCCCCCCCCCOCCCc2cccnc2)c1 [molecule 28, 3-(3-(6-azidohexyloxy)propyl)-1-(12-(3-(pyridin-3-yl)propoxy)dodecyl)pyridinium chloride] | 37.8 |  |  |
| [N-]=[N+]=NCCCCCCCCOCCCc1ccc[n+](CCCCCCCCCCOCCCc2cccnc2)c1 [molecule 29, 3-(3-(8-azidooctyloxy)propyl)-1-(10-(3-(pyridin-3-yl)propoxy)decyl)pyridinium chloride] | 24 |  |  |
| [N-]=[N+]=NCCCCCCCCCCOCCCc1ccc[n+](CCCCCCCCCCOCCCc2cccnc2)c1 [molecule 30, 3-(3-(10-azidodecyloxy)propyl)-1-(10-(3-(pyridin-3-yl)propoxy)decyl)pyridinium chloride] | 52.8 | superior to clioquinol |  |
| [N-]=[N+]=NCCCCCCCCCCCCOCCCc1ccc[n+](CCCCCCCCOCCCc2cccnc2)c1 [molecule 31, 3-(3-(12-azidododecyloxy)propyl)-1-(8-(3-(pyridin-3-yl)propoxy)octyl)pyridinium chloride] | 82.9 | superior to clioquinol |  |
| [N-]=[N+]=NCCCCCCCCCCCCOCCCc1ccc[n+](CCCCCCCCCCOCCCc2cccnc2)c1 [molecule 33, 3-(3-(12-azidododecyloxy)propyl)-1-(10-(3-(pyridin-3-yl)propoxy)decyl)pyridinium chloride] | 54.2 | superior to clioquinol |  |
| [N-]=[N+]=NCCCCCCCCCCCCOCCCc1ccc[n+](CCCCCCCCCCCCOCCCc2cccnc2)c1 [molecule 34, 3-(3-(12-azidododecyloxy)propyl)-1-(12-(3-(pyridin-3-yl)propoxy)dodecyl)pyridinium chloride] | 30.6 |  |  |
| CC(=O)Oc1c(-c2cn(CCCCOCCCc3ccc[n+](CCCCOCCCc4cccnc4)c3)nn2)cc(Cl)c2cccnc12 [molecule 35, 3-(3-(4-(4-(8-acetoxy-5-chloroquinolin-7-yl)-1H-1,2,3-triazol-1-yl)butoxy)propyl)-1-(4-(3-(pyridin-3-yl)propoxy)butyl)pyridinium chloride] | 29.8 |  |  |
| CC(=O)Oc1c(-c2cn(CCCCOCCCc3ccc[n+](CCCCCCOCCCc4cccnc4)c3)nn2)cc(Cl)c2cccnc12 [molecule 36, 3-(3-(4-(4-(8-acetoxy-5-chloroquinolin-7-yl)-1H-1,2,3-triazol-1-yl)butoxy)propyl)-1-(6-(3-(pyridin-3-yl)propoxy)hexyl)pyridinium chloride] | 54.2 | superior to clioquinol |  |
| CC(=O)Oc1c(-c2cn(CCCCCCOCCCc3ccc[n+](CCCCOCCCc4cccnc4)c3)nn2)cc(Cl)c2cccnc12 [molecule 37, 3-(3-(6-(4-(8-acetoxy-5-chloroquinolin-7-yl)-1H-1,2,3-triazol-1-yl)hexyloxy)propyl)-1-(4-(3-(pyridin-3-yl)propoxy)butyl)pyridinium chloride] | 92.5 | superior to clioquinol |  |
| CC(=O)Oc1c(-c2cn(CCCCOCCCc3ccc[n+](CCCCCCCCOCCCc4cccnc4)c3)nn2)cc(Cl)c2cccnc12 [molecule 38, 3-(3-(4-(4-(8-acetoxy-5-chloroquinolin-7-yl)-1H-1,2,3-triazol-1-yl)butoxy)propyl)-1-(8-(3-(pyridin-3-yl)propoxy)octyl)pyridinium chloride] | 27.3 |  |  |
| CC(=O)Oc1c(-c2cn(CCCCCCOCCCc3ccc[n+](CCCCCCOCCCc4cccnc4)c3)nn2)cc(Cl)c2cccnc12 [molecule 39, 3-(3-(6-(4-(8-acetoxy-5-chloroquinolin-7-yl)-1H-1,2,3-triazol-1-yl)hexyloxy)propyl)-1-(6-(3-(pyridin-3-yl)propoxy)hexyl)pyridinium chloride] | 97.3 | superior to clioquinol |  |
| CC(=O)Oc1c(-c2cn(CCCCCCOCCCc3ccc[n+](CCCCCCCCOCCCc4cccnc4)c3)nn2)cc(Cl)c2cccnc12 [molecule 40, 3-(3-(6-(4-(8-acetoxy-5-chloroquinolin-7-yl)-1H-1,2,3-triazol-1-yl)hexyloxy)propyl)-1-(8-(3-(pyridin-3-yl)propoxy)octyl)pyridinium chloride] | 87.2 | superior to clioquinol |  |
| CC(=O)Oc1c(-c2cn(CCCCCCCCOCCCc3ccc[n+](CCCCCCOCCCc4cccnc4)c3)nn2)cc(Cl)c2cccnc12 [molecule 41, 3-(3-(8-(4-(8-acetoxy-5-chloroquinolin-7-yl)-1H-1,2,3-triazol-1-yl)octyloxy)propyl)-1-(6-(3-(pyridin-3-yl)propoxy)hexyl)pyridinium chloride] | 69.1 | superior to clioquinol |  |
| CC(=O)Oc1c(-c2cn(CCCCCCCCCCOCCCc3ccc[n+](CCCCCCOCCCc4cccnc4)c3)nn2)cc(Cl)c2cccnc12 [molecule 42, 3-(3-(10-(4-(8-acetoxy-5-chloroquinolin-7-yl)-1H-1,2,3-triazol-1-yl)decyloxy)propyl)-1-(6-(3-(pyridin-3-yl)propoxy)hexyl)pyridinium chloride] |  |  | PscE-PscG at 50 μM: no inhibition |
